US10858316B2, “Small molecule inhibitors of the MCL-1 oncoprotein and uses thereof” (University of Maryland, Baltimore, priority 2015, dated 2020)
Like-named read-outs stand apart in the source and are kept apart here.

Target: Mcl-1 (Homo sapiens (Human), UniProt Q07820)
Assay: Fluorescence polarization competition assay (FPCA), Mcl-1 / FITC-Bak BH3 peptide
Type: binding
Details: for Ki: read-out: Mcl-1 Ki; for Mcl-1 Exp ΔG: ΔG=−RTlnKi from experimental Ki
From the text: The tagged protein was initially purified from the crude cell lysate by immobilized metal affinity chromatography (IMAC) chromatography (GE Healthcare Life Sciences), and after dialysis to remove the imidazole the affinity tag was cleaved using PreScission Protease (GE Healthcare Life Sciences). A Sephacryl S-200 size exclusion column was used as a final purification step before the protein was concentrated with a 10,000 MWCO centifugal filter concentrator (Millipore).
Fluorescence polarization experiments were conducted using a BMG PHERAstar FS multimode microplate reader equipped with two PMTs for simultaneous measurements of the perpendicular and parallel fluorescence emission. The assays were performed in black polypropylene 384-well microplate (Costar) with a final volume of 20 microliter. […] Regression analysis was carried out using Origin (OriginLab, Northampton, Mass.) to fit the data to the Hill equation (1) to determine the initial binding affinity (KD) and the IC50 in the FPCA. For the fluorescence polarization competition titrations, an equation derived by Nikolovska-Coleska et al. was used to calculate the Ki from the IC50 data.
The target molecules were assayed for their abilities to disrupt the Mcl-1-Bak-BH3 PPI in a fluorescence polarization competition (FPC) assay with Mcl-1 and FITC-labeled Bak-BH3 peptide. Further details on the FPC assay can be found in the Supporting Information.

[1] = FPCA with FITC-Bak, Ki from IC50 by Nikolovska-Coleska equation

Chain of Mcl-1 (Q07820 172-327): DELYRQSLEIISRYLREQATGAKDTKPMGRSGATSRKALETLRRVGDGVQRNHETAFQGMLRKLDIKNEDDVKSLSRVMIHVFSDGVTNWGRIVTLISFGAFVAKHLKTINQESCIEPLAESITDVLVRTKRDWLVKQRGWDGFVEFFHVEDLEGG

| SMILES | Mcl-1 Exp ΔG [kcal/mol] | Ki [1] [µM] | other results |
| --- | --- | --- | --- |
| O=C(O)C1Cc2ccccc2N(S(=O)(=O)c2ccc(-c3ccccc3)cc2)C1 (racemic) [SF-5-133, (±)-1-([1,1′-biphenyl]-4-ylsulfonyl)-1,2,3,4-tetrahydroquinoline-3-carboxylic acid] |  |  | Ki: 12 µM |
| O=C(O)C1Cc2ccccc2N(S(=O)(=O)c2ccc3ccccc3c2)C1 (racemic) [SF-5-134, (±)-1-(naphthalen-2-ylsulfonyl)-1,2,3,4-tetrahydroquinoline-3-carboxylic acid] |  |  | Ki: 30 µM |
| O=C(O)C1Cc2ccccc2N(S(=O)(=O)c2ccc(Br)cc2)C1 (racemic) [SF-5-135, (±)-1-((4-bromophenyl)sulfonyl)-1,2,3,4-tetrahydroquinoline-3-carboxylic acid] |  |  | Ki: > 1000 µM |
| O=C(O)C1Cc2ccccc2N(S(=O)(=O)c2ccc(F)cc2)C1 (racemic) [SF-5-136, (±)-1-((4-fluorophenyl)sulfonyl)-1,2,3,4-tetrahydroquinoline-3-carboxylic acid] |  |  | Ki: > 1000 µM |
| Cc1cc(Oc2ccc(S(=O)(=O)N3CC(C(=O)O)Cc4ccccc43)cc2)cc(C)c1Cl (racemic) [SF-5-141, (±)-1-((4-(4-chloro-3,5-dimethylphenoxy)phenyl)sulfonyl)-1,2,3,4-tetrahydroquinoline-3-carboxylic acid] |  |  | Ki: 0.286 µM |
| O=C(O)C1CNc2ccccc2C1 (racemic) [±-6, 1,2,3,4-tetrahydroquinoline-3-carboxylic acid] |  | > 500 | Ki (FPC assay): > 500 µM |
| O=C(O)C1Cc2ccccc2N(S(=O)(=O)c2ccccc2)C1 (racemic) [±-8a] |  | 193 ± 24 | Ki (FPC assay): 193 µM |
| O=C(O)C1Cc2ccccc2N(S(=O)(=O)c2ccc(Br)cc2)C1 (racemic) [±-8b] |  | 117 ± 19 | Ki (FPC assay): 117 µM |
| O=C(O)C1Cc2ccccc2N(S(=O)(=O)c2ccc(F)cc2)C1 (racemic) [±-8c] |  | 176 ± 115 |  |
| O=C(O)C1Cc2ccccc2N(S(=O)(=O)c2ccc(-c3ccccc3)cc2)C1 (racemic) [±-8d] |  | > 500 | Ki (FPC assay): > 500 µM |
| O=C(O)C1Cc2ccccc2N(S(=O)(=O)c2ccc3ccccc3c2)C1 (racemic) [±-8e] |  | 59 ± 6 |  |
| COC(=O)C1Cc2ccccc2N(S(=O)(=O)c2ccc(Oc3cc(C)c(Cl)c(C)c3)cc2)C1 (racemic) [±-9] |  | > 500 | Binding affinity to Mcl-1 in vitro (FPCA): no appreciable affinity |
| Cc1cc(OCCCN2CC(C(=O)O)Cc3ccccc32)cc(C)c1Cl (racemic) [±-11] |  | 7.77 ± 1.39 |  |
| CC(C)Oc1ccc(NS(=O)(=O)c2cc(C(=O)O)c(O)c3ccccc23)cc1 [3aa; SF-5-293] | -5.82 |  |  |
| N#Cc1ccc(NS(=O)(=O)c2cc(C(=O)O)c(O)c3ccccc23)cc1 [3ab; TA-1-018] | -6.35 |  |  |
| N#Cc1cccc(NS(=O)(=O)c2cc(C(=O)O)c(O)c3ccccc23)c1 [3ad; 5JC75-2] | -6.23 |  |  |
| NS(=O)(=O)c1cc(C(=O)O)c(O)c2ccccc12 [3b; SF-5-294] | -5.46 |  |  |
| O=C(O)c1cc(S(=O)(=O)Nc2ccc(Oc3ccccc3)cc2)c2ccccc2c1O [3bb; SF-5-299] | -8.10 |  |  |
| O=C(O)c1cc(S(=O)(=O)Nc2ccc(Oc3ccc(Cl)cc3)cc2)c2ccccc2c1O [3bh; SF-5-304] | -9.22 |  |  |
| O=C(O)c1cc(S(=O)(=O)NCc2ccccc2)c2ccccc2c1O [3c; SF-5-311] | -5.79 |  |  |
| O=C(O)c1cc(S(=O)(=O)NCc2ccccc2Cl)c2ccccc2c1O [3d; 5JC73-2] | -5.86 |  |  |
| O=C(O)c1cc(S(=O)(=O)NCc2cccc(Cl)c2)c2ccccc2c1O [3e; 5JC71] | -7.22 |  |  |
| CN(C)S(=O)(=O)c1cc(C(=O)O)c(O)c2ccccc12 [3h; SF-5-295] | -6.26 |  |  |
| O=C(O)c1cc(S(=O)(=O)N2CCCCC2)c2ccccc2c1O [3i; SF-5-263] | -7.54 |  |  |
| O=C(O)c1cc(S(=O)(=O)N2CCN(c3ccccc3)CC2)c2ccccc2c1O [3j; EW-2-051] | -7.29 |  |  |
| O=C(O)c1cc(S(=O)(=O)N2CCN(Cc3ccccc3)CC2)c2ccccc2c1O [3k; SF-5-307] | -7.45 |  |  |
| O=C(O)c1cc(S(=O)(=O)Nc2ccccc2)c2ccccc2c1O [3l; SF-5-311] | -5.42 |  |  |

| SMILES | Mcl-1 Exp ΔG [kcal/mol] | Ki [1] [µM] | other results |
| --- | --- | --- | --- |
| O=C(O)c1cc(S(=O)(=O)Nc2ccccc2Br)c2ccccc2c1O [3m; TA-1-019] | -7.04 |  |  |
| O=C(O)c1cc(S(=O)(=O)Nc2cccc(Br)c2)c2ccccc2c1O [3n; TA-1-020] | -7.16 |  |  |
| O=C(O)c1cc(S(=O)(=O)Nc2ccccc2-c2ccccc2)c2ccccc2c1O [3r; LC-4-002] | -6.91 |  |  |
| O=C(O)c1cc(S(=O)(=O)Nc2cccc(-c3ccccc3)c2)c2ccccc2c1O [3s; LC-3-192] | -7.81 |  |  |
| O=C(O)c1cc(S(=O)(=O)Nc2ccc(-c3ccccc3)cc2)c2ccccc2c1O [3t; LC-3-192] | -7.93 |  |  |
| O=C(O)c1cc(S(=O)(=O)Nc2ccc(Cl)cc2)c2ccccc2c1O [3v; 5JC67] | -7.80 |  |  |
| O=C(O)c1cc(S(=O)(=O)Nc2ccc(C(F)(F)F)cc2)c2ccccc2c1O [3w; 5JC73-1] | -7.64 |  |  |
| Cc1ccc(NS(=O)(=O)c2cc(C(=O)O)c(O)c3ccccc23)cc1 [3x; 5JC74-1] | -6.09 |  |  |
| CC(C)c1ccc(NS(=O)(=O)c2cc(C(=O)O)c(O)c3ccccc23)cc1 [3y; 5JC74-2] | -7.38 |  |  |
| Cc1ccc(S(=O)(=O)N(CC(C)C)c2ccc(C(=O)O)c(O)c2)cc1 [4jc117-2 13af] |  | 61.2 ± 4.49 |  |
| CC(C)CN(c1cccc(C(=O)O)c1)S(=O)(=O)c1ccccc1 [4jc177-1 18aa] |  | > 500 |  |
| Cc1ccc(S(=O)(=O)N(CC(C)C)c2cccc(C(=O)O)c2)cc1 [4jc177-2 18ae] |  | 155 ± 14.7 |  |
| CC(C)CN(c1cccc(C(=O)O)c1)S(=O)(=O)c1ccc2ccccc2c1 [4jc177-3 18ab] |  | 61.7 ± 4.73 |  |
| CC(C)CN(c1cccc(C(=O)O)c1)S(=O)(=O)c1ccc(-c2ccccc2)cc1 [4jc177-4 18ac] |  | > 500 |  |
| CC(C)CN(c1cccc(C(=O)O)c1)S(=O)(=O)c1ccc(F)cc1 [4jc177-6 18ad] |  | > 500 |  |
| CC(C)Oc1ccc(NS(=O)(=O)c2cc(C(=O)O)c(O)c3ccccc23)cc1 [Compound 3aa, 1-Hydroxy-4-(N-(4-isopropoxyphenyl)sulfamoyl)-2-naphthoic Acid] |  | 54 ± 4.6 |  |
| N#Cc1ccc(NS(=O)(=O)c2cc(C(=O)O)c(O)c3ccccc23)cc1 [Compound 3ab, 4-(N-(4-Cyanophenyl)sulfamoyl)-1-hydroxy-2-naphthoic Acid] |  | 22.2 ± 1.6 |  |
| N#Cc1cccc(NS(=O)(=O)c2cc(C(=O)O)c(O)c3ccccc23)c1 [Compound 3ad, 4-(N-(3-Cyanophenyl)sulfamoyl)-1-hydroxy-2-naphthoic Acid] |  | 26.9 ± 0.6 |  |
| NS(=O)(=O)c1cc(C(=O)O)c(O)c2ccccc12 [Compound 3b, 1-Hydroxy-4-sulfamoyl-2-naphthoic Acid] |  | 99 |  |
| O=C(O)c1cc(S(=O)(=O)Nc2ccc(Oc3ccccc3)cc2)c2ccccc2c1O [Compound 3bb, 1-Hydroxy-4-(N-(4-phenoxyphenyl)sulfamoyl)-2-naphthoic Acid] |  | 1.15 ± 0.28 |  |
| O=C(O)c1cc(S(=O)(=O)Nc2ccc(Oc3ccc(Cl)cc3)cc2)c2ccccc2c1O [Compound 3bh, 4-(N-(4-(4-Chlorophenoxy)phenyl)sulfamoyl)-1-hydroxy-2-naphthoic Acid] |  | 0.173 |  |
| O=C(O)c1cc(S(=O)(=O)NCc2ccccc2)c2ccccc2c1O [Compound 3c, 4-(N-Benzylsulfamoyl)-1-hydroxy-2-naphthoic Acid] |  | 56.3 ± 2.1 |  |
| O=C(O)c1cc(S(=O)(=O)NCc2ccccc2Cl)c2ccccc2c1O [Compound 3d, 4-(N-(2-Chlorobenzyl)sulfamoyl)-1-hydroxy-2-naphthoic Acid] |  | 50.3 ± 11.8 |  |
| O=C(O)c1cc(S(=O)(=O)NCc2cccc(Cl)c2)c2ccccc2c1O [Compound 3e, 4-(N-(3-Chlorobenzyl)sulfamoyl)-1-hydroxy-2-naphthoic Acid] |  | 5.03 ± 2.78 |  |
| CN(C)S(=O)(=O)c1cc(C(=O)O)c(O)c2ccccc12 [Compound 3h, 4-(N,N-Dimethylsulfamoyl)-1-hydroxy-2-naphthoic Acid] |  | 25.7 ± 4.86 |  |
| O=C(O)c1cc(S(=O)(=O)N2CCCCC2)c2ccccc2c1O [Compound 3i, 1-Hydroxy-4-(piperidin-1-ylsulfonyl)-2-naphthoic Acid] |  | 2.95 ± 0.43 |  |

More lines, main results first:

| Mcl-1 Exp ΔG [kcal/mol] | SMILES | Ki [1] [µM] | other results |
| --- | --- | --- | --- |
| -8.52 | CC(C)CN(c1ccc(Br)cc1)S(=O)(=O)c1cc(C(=O)O)c(O)c2ccccc12 [Compound 3ca, 4-(N-(4-Bromophenyl)-N-isobutylsulfamoyl)-1-hydroxy-2-naphthoic Acid] | 0.566 |  |
| >-4.50 | COC(=O)c1cc(S(=O)(=O)N(CC(C)C)c2ccc(Br)cc2)c2ccccc2c1O [Compound 3cb, Methyl 4-(N-(4-bromophenyl)-N-isobutylsulfamoyl)-1-hydroxy-2-naphthoate] | > 500 |  |
| -6.31 | COc1c(C(=O)O)cc(S(=O)(=O)N(CC(C)C)c2ccc(Br)cc2)c2ccccc12 [Compound 3cd, 4-(N-(4-Bromophenyl)-N-isobutylsulfamoyl)-1-methoxy-2-naphthoic Acid] | 23.4 ± 2.6 |  |
